Results taken from article PMC8845285, “Serotoninergic receptor ligands improve Tamoxifen effectiveness on breast cancer cells” (BMC Cancer, 2022).
Read-outs that look alike come from different tables or passages of the source.

Assays:
[1] = target: T1, serotonin 5-HT1A receptor (Rattus norvegicus, UniProt P19327); test: radioligand binding assay, 5-HT1A, [3H]-8-OH-DPAT; conditions: rat brain cortex; read-out: Ki ± SD, 5-HT1A [3H]8OH-DPAT
T1 construct: serotonin 5-HT1A receptor, [^3H]-8-OH-DPAT, rat brain cortex; from tissue; host or cells: rat brain cortex
T1 sequence (P19327 1-422): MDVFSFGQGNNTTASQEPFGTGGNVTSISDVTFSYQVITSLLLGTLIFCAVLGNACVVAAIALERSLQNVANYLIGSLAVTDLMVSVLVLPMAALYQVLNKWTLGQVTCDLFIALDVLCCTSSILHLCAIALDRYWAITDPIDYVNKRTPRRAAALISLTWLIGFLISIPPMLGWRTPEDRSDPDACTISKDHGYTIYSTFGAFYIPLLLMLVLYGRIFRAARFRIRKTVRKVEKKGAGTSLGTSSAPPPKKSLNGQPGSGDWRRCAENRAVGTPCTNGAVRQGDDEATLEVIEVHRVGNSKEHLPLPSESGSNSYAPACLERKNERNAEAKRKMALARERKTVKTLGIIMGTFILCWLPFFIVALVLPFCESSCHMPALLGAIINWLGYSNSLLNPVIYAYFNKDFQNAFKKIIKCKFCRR
Experimental: (§1) All reactions were monitored by TLC, carried out on Merck 60G F254 plates with fluorescent indicator and the plates were visualized with UV light (254 nm). Each final compound and intermediate was purified by silica gel column chromatography (Macherey-Nagel 60 0,063–0,2 mm/70–230 mesh). […] Unless otherwise stated, all spectra were recorded in CDCl3. Chemical shifts are reported in ppm using Me4Si as internal standard. The following abbreviations are used to describe peak patterns when appropriate: s (singlet), d (doublet), t (triplet), m (multiplet), q (quartet), qt (quintet), dd (double doublet), ddd (double dd), bs (broad singlet). Mass spectra of the final products were performed on LTQ Orbitrap XL™ Fourier transform mass spectrometer (FTMS) equipped with ESI ION MAX™ source (Thermo Fisher, San José, USA). Melting points were determined using a Buchi B-540 hot-stage instrument and are uncorrected. […] All the compounds were dissolved in 5% DMSO. The following specific radioligands and tissue sources were used: (a)serotonin 5-HT1A receptor, [^3H]-8-OH-DPAT, rat brain cortex; (b) serotonin 5-HT2A receptor, [^3H]ketanserin, rat brain cortex; (c)serotonin 5-HT2C receptor, [^3H]mesulergine, rat brain cortex. Non-specific binding was determined as described in the experimental section, and specific binding as the difference between total and non-specific binding. […] The IC50 values obtained were used to calculate apparent inhibition constants (Ki) by the method of Cheng and Prussoff, from the following equation: Ki = IC50/(1 + S/KD) where S represents the concentration of the hot ligand used and KD its receptor dissociation constant (KD values, obtained by Scatchard analysis, were calculated for each labeled ligand). Radioligand binding assays for 5-HT1A were performed following a published procedure. 5-HT2A and 5-HT2C binding assays were performed reported by Herndon et al..

[2] = target: T2, serotonin 5-HT2A receptor (Rattus norvegicus, UniProt P14842); test: radioligand binding assay, 5-HT2A, [3H]ketanserin; conditions: rat brain cortex; read-out: Ki ± SD, 5-HT2A [3H]Ketanserin
T2 construct: serotonin 5-HT2A receptor, [^3H]ketanserin, rat brain cortex; from tissue; host or cells: rat brain cortex
Experimental: as §1

[3] = target: T3, serotonin 5-HT2C receptor (Rattus norvegicus, UniProt P08909); test: radioligand binding assay, 5-HT2C, [3H]mesulergine; conditions: read-out: Ki ± SD, 5-HT2C [3H]Mesulergine
T3 construct: serotonin 5-HT2C receptor, [^3H]mesulergine, rat brain cortex; from tissue; host or cells: rat brain cortex
T3 sequence (P08909 33-460): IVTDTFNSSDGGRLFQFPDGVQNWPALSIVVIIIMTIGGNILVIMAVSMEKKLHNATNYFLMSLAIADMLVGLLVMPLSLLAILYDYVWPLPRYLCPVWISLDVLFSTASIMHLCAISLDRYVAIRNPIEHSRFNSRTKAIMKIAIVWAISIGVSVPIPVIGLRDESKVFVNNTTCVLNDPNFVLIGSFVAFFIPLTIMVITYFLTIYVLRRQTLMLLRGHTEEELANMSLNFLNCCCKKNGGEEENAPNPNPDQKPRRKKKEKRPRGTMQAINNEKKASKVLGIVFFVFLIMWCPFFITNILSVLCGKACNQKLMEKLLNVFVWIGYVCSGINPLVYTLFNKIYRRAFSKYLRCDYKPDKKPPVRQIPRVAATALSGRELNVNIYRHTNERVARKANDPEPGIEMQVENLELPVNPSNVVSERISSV
Experimental: as §1

[4] = system: MCF7 cells; test: MCF7 cell viability, sulforhodamine B assay; assay type: cell-based, human; conditions: for IC50: Homo sapiens, MCF7
Experimental: (§2) MCF7 (ER^+, PR^+, HER2^−), SKBR3 (ER^−, PR^+, HER2^+) and MDA-MB231 (ER^−, PR^−, HER2^−) human BC cells and MCF10A non-cancer breast epithelial cells were available in our laboratory. MCF7, SKBR3 and MDA-MB231 cells were cultured in DMEM, supplemented with 10% FBS, 2 mM glutamine, 100 units/ml penicillin and 100 units/ml streptomycin. MCF10A cells were cultured in MEBM, supplemented with 0.4% BPE, 0.1% hEGF, 0.1%, Insulin, 0.1% Hydrocortisone and 0.1% GA-1000. […] Treatment with SER were carried out in culture conditions. Treatment with Tamoxifen and/or SER were carried out upon 48 h estrogen starvation in phenol-red free medium supplemented with 10% Charcoal Stripped (C/S) FBS, 2 mM glutamine, 100 units/ml penicillin and 100 units/ml streptomycin.
(§3) Cells were fixed with 50% trichloroacetic acid for at least 2 h at 4 °C, washed with distilled and de-ionized water, air-dryed and stained 30 min with 0.4% sulforhodamine B in 1% acetic acid. Unbound dye was removed and 10 mM tris-HCl solution (pH 7.5) was added to dissolve the protein-bound dye. Cell survival was assessed by optical density determination at 510 nm using a microplate reader.
After 48 and 72 h, cell viability was assessed by sulforhodamine B assay (see Methods).

[5] = system: SKBR3 cells; test: SKBR3 cell viability, sulforhodamine B assay; assay type: cell-based, human; conditions: for IC50: Homo sapiens, SK-BR-3, 72 h treatment
Experimental: as §2, §3
Fig. 3 Effect of SER on SKBR3 cell viability. […] Cell viability was assessed, after 72 h, by sulforhodamine B assay (see Methods).

[6] = system: MDA-MB231 cells; test: MDA-MB231 cell viability, sulforhodamine B assay; assay type: cell-based, human; conditions: for IC50: Homo sapiens, MDA-MB-231, 72 h treatment
Experimental: as §2, §3
Cell viability was assessed, after 72 h, by sulforhodamine B assay (see Methods).

[7] = 48 h treatment, read-out: IC50 MCF7 48h
[8] = 72 h treatment, read-out: IC50 MCF7

T2 sequence (P14842 whole entry): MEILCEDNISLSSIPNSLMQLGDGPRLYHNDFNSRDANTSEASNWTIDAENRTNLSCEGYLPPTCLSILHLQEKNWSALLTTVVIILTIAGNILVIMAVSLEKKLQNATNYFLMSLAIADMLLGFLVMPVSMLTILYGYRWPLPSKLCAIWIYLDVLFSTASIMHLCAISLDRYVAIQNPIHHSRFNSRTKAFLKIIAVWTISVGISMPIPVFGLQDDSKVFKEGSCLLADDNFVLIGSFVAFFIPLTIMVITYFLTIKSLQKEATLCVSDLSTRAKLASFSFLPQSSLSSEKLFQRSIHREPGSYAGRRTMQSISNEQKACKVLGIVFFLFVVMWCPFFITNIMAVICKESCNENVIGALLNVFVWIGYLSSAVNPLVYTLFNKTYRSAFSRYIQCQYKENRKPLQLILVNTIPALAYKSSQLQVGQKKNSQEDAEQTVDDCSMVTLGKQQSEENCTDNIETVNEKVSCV

Compound | Ki [1] [µM] | Ki [2] [µM] | Ki ([3]; rat brain cortex) [µM] | IC50 [4, 7] [µM] | IC50 [4, 8] [µM] | IC50 [5] [µM] | inhibition of MDA-MB231 cell growth ([6]; 100 μM, 72 h) | IC50 [6] [µM] | Ki [3] [µM] | reduction of MCF7 cell viability ([4]; 50 μM, 72 h) | reduction of SKBR3 cell viability ([5]; 50 μM, 72 h)
O=C(c1ccco1)N1CCN(CC(O)CON2C(=O)C3C4C=CC(C4)C3C2=O)CC1 (stereo not shown) [SER31, 4-[3-[4-(2-furoyl)piperazin-1-yl]propoxy-2-ol]-4-aza-tricyclo [5.2.1.02,6]dec-8-ene-3,5-dione] | 1.05 ± 0.000231 | > 10 | 0.00504 ± 0.000227 | 336 ± 153 | 99.2 ± 33 | 100 ± 30.8 | able to inhibit | 136 ± 38.6 |  |  | 
O=C(NCCN1CCN(c2cccc(C(F)(F)F)c2)CC1)c1ccccn1 [SER167] | 1.32 ± 0.012 | 0.0485 ± 0.0027 |  | 151 ± 41.6 | 54.2 ± 10 | 152 ± 21.6 |  | 223 ± 154 | 0.14 ± 0.0025 |  | 
O=C(NCCN1CCN(C(c2ccc(F)cc2)c2ccc(F)cc2)CC1)c1ccccn1 [SER177] |  | 0.218 ± 0.0093 | 0.0008 ± 5e-05 | 253 ± 65.6 | 66.6 ± 16.2 | 43.3 ± 11.1 |  | 198 ± 66.7 |  |  | 
O=C(NCCCN1CCN(Cc2ccc3c(c2)OCO3)CC1)c1ccccn1 [SER195] |  | 0.0453 ± 0.0057 |  | 156 ± 36.1 | 53.3 ± 8.29 | 150 ± 26 |  | 322 ± 118 |  |  | 
O=C(NCCCN1CCN(C(=O)c2ccco2)CC1)c1ccccn1 [SER196] |  | 0.00168 ± 0.0004 |  | 206 ± 50.7 | 124 ± 31 | 202 ± 31.2 |  | 306 ± 65.8 |  |  | 
O=C(NCCCN1CCN(C(c2ccc(F)cc2)c2ccc(F)cc2)CC1)c1ccccn1 [SER198] | 0.0527 ± 0.0027 | 0.0778 ± 0.0021 |  | 106 ± 18.4 | 10.2 ± 2.5 | 67.7 ± 8.02 |  | 91.3 ± 18.6 | 0.117 ± 0.0061 | ≈ 70% | ≈ 50%
